Measurements reported in patent publication US6143764A, “Quinoline and quinazoline derivatives inhibiting platelet-derived growth factor receptor autophosphorylation and pharmaceutical compositions containing the same” (priority 1995, dated 2000).
Read-outs that look alike come from different tables or passages of the source.

Experiments:
[1] = molecular target: T1, PDGF receptor (Rattus norvegicus, UniProt Q05030); test: PDGF receptor autophosphorylation inhibition in cultured rat mesangial cells; type: cell-based; settings: PDGF-BB 50 ng/ml
T1 construct: cultured rat mesangial cells which are known to have the PDGF receptor; endogenous in cells; host or cells: primary mesangial cells cultured from glomeruli of Wistar-Kyoto rats (Charles River Japan), more than 5 passages
Summary of the method: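 Growth-arrested rat mesangial cells (>5 passages, 0.5% FCS for 3 days) preincubated with drug in 0.1% BSA medium for 1 h at 37° C., then stimulated with 50 ng/ml human PDGF-BB for 10 min. Phosphotyrosine Western blot of ~180 kDa receptor band by densitometry, normalized to PDGF-stimulated (100%) and unstimulated (0%) wells.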

[2] = tested on: glomerulonephritis associated with mesangial cell growth in rats; test: Effect on nephritis associated with mesangial cell growth in rats (OX-7 induced glomerulonephritis); type: in vivo, Wistar-Kyoto rat; settings: 8 days
Procedure: Effect on nephritis associated with mesangial cell growth in rats
Groups of 6 Wistar-Kyoto male rats (7 weeks old, purchased from Charles River Japan, Inc.) were used. OX-7 (prepared according to Pathol. Int., 45, 409 (1995)), a monoclonal antibody against anti-rat Thy1.1, was injected intravenously into the tails of rats at a dose of 1.2 mg/kg to induce glomerulonephritis associated with mesangial cell growth and extracellular matrix accumulation. A test drug suspended in a vehicle, a 1% aqueous cremophor solution, was administered orally 2 times a day starting one day after an OX-7 injection for 8 consecutive days. On day 9, when pathological changes in glomeruli became markedly apparent, the rats were sacrificed and anatomized under anesthesia with ether, and left kidneys were taken out and fixed in formalin. The kidneys were embedded in paraffin and then sectioned thinly, and the sections were stained with a periodic acid-Schiff's reagent. The 20 glomeruli were arbitrarily selected for individual specimens thus prepared, and pathological sclerotic changes were scored as follows:
Average scores for sclerotic change of individual specimens were calculated to quantify the degree of glomerular sclerosis. Average scores of glomerular sclerosis for individual specimens of rat groups administered with the drug were compared with those for control groups administered with the vehicle only to calculate glomerular sclerosis inhibition rates (%). The significance of differences was determined by the Dunnet method after testing homoscedasticity according to the Bartlett method.

[3] = tested on: St-4 (stomach); test: Antitumor effect against St-4 stomach tumor in nude mice; type: in vivo; settings: 100 mg/kg intraperitoneally once a day, 9 days
Procedure: (§1) Human glioma, GLO7 (obtained from the Central Institute for Experimental Animals), was transplanted into nude mice. When the tumor had grown to a volume of about 100 mm^3, the nude mice were divided into several groups of 4 animals so as to equalize the average tumor volumes of each group. The test drug was administered orally to animals in experimental groups 2 times a day for 14 consecutive days at 100 mg/kg, and the vehicle was administered to control animals. The tumor growth inhibition rate (TGIR, %) was calculated from the equation: TGIR=(1-Tx/Cx)×100, in which Cx is the tumor volume in the control mice and Tx is the tumor volume in the drug-treated mice, on day X, when the initial tumor volume at the time treatment was commenced is set 1.
(§2) In the same manner as described in 2, various types of tumor cells (obtained from the Central Institute for Experimental Animals) were transplanted into nude mice. When the tumor had grown to a volume of about 100 mm^3, the animals were allocated to several groups each consisting of 4 animals so as to equalize the average tumor volume of each group. Test drugs were administered intraperitoneally to animals in experimental groups once a day for 9 consecutive days at 100 mg/kg, and the vehicle was administered to control animals.

[4] = tested on: COL-1 (colon); test: Antitumor effect against COL-1 colon tumor in nude mice; type: in vivo; settings: 100 mg/kg intraperitoneally once a day, 9 days
Procedure: as §1, §2

[5] = tested on: L-27 (lung); test: Antitumor effect against L-27 lung tumor in nude mice; type: in vivo; settings: 100 mg/kg intraperitoneally once a day, 9 days
Procedure: as §1, §2

[6] = tested on: human glioma cells (GLO7); test: Antitumor effect of compound number 43 against human glioma (GLO7), nude mice xenograft; type: in vivo; settings: 100 mg/kg orally 2 times a day, 14 days, test period about 4 weeks
Procedure: as §1, with “1. During the test period of about 4 weeks, the maximum TGIR value was 76%, and thus an excellent antitumor effect was observed.” for “1.”

[7] = tested on: collagen-induced arthritis in mice; test: Effect on collagen-induced arthritis in mice; type: in vivo, mouse (DBA/lJNCrj); settings: for Number of mice with arthritis/total mice: 16 days; for Incidence of collagen-induced arthritis: 16 days (vehicle 70)
[8] = tested on: mouse leukemia cells (P388); test: Antitumor effect against mouse leukemia cells (P388), survival of mice; type: in vivo; settings: CDF1 mice, 100 mg/kg intraperitoneally, 9 consecutive days
Procedure: P388 cells (1×10^5 cells), mouse leukemia cells obtained from ATCC, were inoculated intraperitoneally into CDF1 mice (obtained from Japan SLC, Inc.), and then the test compound was administered intraperitoneally for 9 consecutive days at the dose of 100 mg/kg. The drug-treated animals survived longer than control animals by 130%.

[9] = tested on: human glioma (GLO7); test: Antitumor effect of the compounds against human glioma (GLO7), nude mice xenograft; type: in vivo; settings: Mus musculus, po, 216 h, read-out: Tumor growth inhibition rate (TGIR)
Procedure: Analogously to 2, human glioma cells, GLO7 (obtained from the Central Institute for Experimental Animals), was transplanted into nude mice. When the tumor had grown to a volume of about 100 mm^3, the nude mice were divided into several groups of 4 animals so as to equalize the average tumor volumes of each group. The test drug was administered orally to animals in experimental groups once a day for 9 consecutive days at 50 mg/kg, and the vehicle was administered to control animals. The tumor growth inhibition rate (TGIR, %) was calculated from the equation: TGIR=(1-Tx/Cx)×100, in which Cx is the tumor volume in the control mice and Tx is the tumor volume in the drug-treated mice, on day X, when the initial tumor volume at the time treatment was commenced is set 1.

[10] = nude mice, 50 mg/kg orally once a day, 9 days

T1 sequence (Q05030 32-1097): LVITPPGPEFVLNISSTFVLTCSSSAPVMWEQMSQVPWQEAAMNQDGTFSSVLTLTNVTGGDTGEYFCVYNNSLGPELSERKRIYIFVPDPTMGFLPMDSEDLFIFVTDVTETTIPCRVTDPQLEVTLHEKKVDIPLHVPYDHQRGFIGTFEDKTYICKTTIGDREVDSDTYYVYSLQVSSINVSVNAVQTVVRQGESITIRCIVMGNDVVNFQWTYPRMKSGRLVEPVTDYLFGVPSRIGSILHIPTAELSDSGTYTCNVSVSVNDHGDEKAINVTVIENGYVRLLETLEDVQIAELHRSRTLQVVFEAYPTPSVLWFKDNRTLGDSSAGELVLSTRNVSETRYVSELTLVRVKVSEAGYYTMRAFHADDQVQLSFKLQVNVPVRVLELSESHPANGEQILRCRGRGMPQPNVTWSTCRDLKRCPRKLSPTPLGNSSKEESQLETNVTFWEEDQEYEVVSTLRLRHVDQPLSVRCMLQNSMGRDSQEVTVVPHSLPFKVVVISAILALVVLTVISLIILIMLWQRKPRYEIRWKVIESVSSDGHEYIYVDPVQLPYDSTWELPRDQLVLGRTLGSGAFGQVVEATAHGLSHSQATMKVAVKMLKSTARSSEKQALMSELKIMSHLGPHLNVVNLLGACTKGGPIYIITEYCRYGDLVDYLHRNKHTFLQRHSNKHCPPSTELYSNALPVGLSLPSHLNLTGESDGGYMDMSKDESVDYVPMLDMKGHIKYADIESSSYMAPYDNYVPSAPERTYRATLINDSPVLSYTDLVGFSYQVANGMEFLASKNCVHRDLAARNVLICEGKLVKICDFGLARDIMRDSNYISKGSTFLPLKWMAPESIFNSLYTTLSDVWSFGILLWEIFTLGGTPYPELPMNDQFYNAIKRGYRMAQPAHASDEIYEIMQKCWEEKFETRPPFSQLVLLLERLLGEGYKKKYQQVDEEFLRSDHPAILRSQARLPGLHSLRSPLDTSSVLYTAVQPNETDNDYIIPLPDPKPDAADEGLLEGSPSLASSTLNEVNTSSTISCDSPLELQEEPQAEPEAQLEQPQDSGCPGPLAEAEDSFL

IC50 [1]	SMILES	inhibition in vivo at 50 mg/kg [9, 10]	also measured
300 nM	COc1cc2nccc(Oc3ccc(C(=O)c4ccc(C(C)(C)C)cc4)cc3)c2cc1OC [Compound 32, (4-t-Butylphenyl){4-[(6,7-dimethoxy-4-quinolyl)oxy]phenyl}methanone]		Glomerular sclerosis inhibition rate ([2]; 10 mg/kg oral 2 times a day, p < 0.05): 11.7%; Glomerular sclerosis inhibition rate ([2]; 30 mg/kg oral 2 times a day, p < 0.05): 10.2%; Glomerular sclerosis inhibition rate ([2]; 100 mg/kg oral 2 times a day, p < 0.01): 13.7%
	COc1cccc(NC(=O)Nc2ccc(Oc3ccnc4cc(OC)c(OC)cc34)cc2)c1 [Compound 58]		Tumor growth inhibition rate (TGIR) [3]: 86%; Tumor growth inhibition rate (TGIR) [4]: 74%; Tumor growth inhibition rate (TGIR) [5]: 96%; inhibition in vivo at 50 mg/kg [9]: 57%
16 nM	C=CCNC(=O)Nc1ccc(Oc2ccnc3cc(OC)c(OC)cc23)cc1 [Compound 173, N-Allyl-N'-{4-[(6,7-dimethoxy-4-quinolyl)oxy]phenyl}urea]	54%	
21 nM	CCOC(=O)NC(=O)Nc1ccc(Oc2ccnc3cc(OC)c(OC)cc23)cc1 [Compound 190, N-Ethoxycarbonyl-N'-{4-[(6,7-Dimethoxy-4-quinolyl)oxy]phenyl}urea]	50%	
14 nM	CCCNC(=O)Nc1ccc(Oc2ccnc3cc(OC)c(OC)cc23)cc1 [Compound 194, N-{4-[(6,7-Dimethoxy-4-quinolyl)oxy]phenyl}-N'-propylurea]	59%	
47 nM	COc1cc2nccc(Oc3ccc(NC(=O)Nc4cccc(Cl)c4OC)cc3)c2cc1OC [Compound 225, N-(3-Chloro-2-methoxyphenyl)-N'-{4-[(6,7-dimethoxy-4-quinolyl)oxy]phenyl}urea]	58%	
73 nM	COc1ccc(Cl)cc1NC(=O)Nc1ccc(Oc2ccnc3cc(OC)c(OC)cc23)cc1 [Compound 227, N-(3-Chloro-6-methoxyphenyl)-N'-{4-[(6,7-dimethoxy-4-quinolyl)oxy]phenyl}urea]	78%	
18 nM	COc1cc2nccc(Oc3ccc(NC(=O)Nc4ccc(Cl)cc4C)cc3)c2cc1OC [Compound 242, N-(4-Chloro-2-methylphenyl)-N'-{4-[(6,7-dimethoxy-4-quinolyl)oxy]phenyl}urea]	62%	
9 nM	COc1cc2nccc(Oc3ccc(NC(=O)Nc4ccc(Cl)c(N)c4)cc3)c2cc1OC [Compound 244, N-(3-Amino-4-chlorophenyl)-N'-{4-[(6,7-dimethoxy-4-quinolyl)oxy]phenyl}urea]	73%	
7 nM	COc1cc2nccc(Oc3ccc(NC(=O)Nc4ccc(F)c(F)c4)cc3)c2cc1OC [Compound 254, N-(3,4-Difluorophenyl)-N'-(4-[(6,7-dimethoxy-4-quinolyl)oxy]phenyl)urea]	85%	
15 nM	COc1cc2nccc(Oc3ccc(NC(=O)Nc4cc(F)c(F)cc4F)cc3)c2cc1OC [Compound 255, N-(2,4,5-Trifluorophenyl)-N'-{4-[(6,7-dimethoxy-4-quinolyl)oxy]phenyl}urea]	86%	
2 nM	COc1cc2nccc(Oc3ccc(NC(=O)Nc4cccc(F)c4F)cc3)c2cc1OC [Compound 260, N-(2,3-Difluorophenyl)-N'-{4-[(6,7-dimethoxy-4-quinolyl)oxy]phenyl}urea]	52%	
2 nM	COc1cc2nccc(Oc3ccc(NC(=O)Nc4c(F)ccc(F)c4F)cc3)c2cc1OC [Compound 262, N-(2,3,6-Trifluorophenyl)-N'-{4-[(6,7-dimethoxy-4-quinolyl)oxy]phenyl}urea]	87%	
150 nM	COc1cc2nccc(Oc3ccc(NC(=O)Nc4cccc(Cl)c4)cc3)c2cc1OC [Compound 267, N-(3-Chlorophenyl)-N'-{4-[(6,7-dimethoxy-4-quinolyl)oxy]phenyl}urea]	65%	
3 nM	COc1cc2nccc(Oc3ccc(NC(=O)Nc4ccc(F)cc4F)cc3)c2cc1OC [Compound 272, N-(2,4-Difluorophenyl)-N'-{4-[(6,7-dimethoxy-4-quinolyl)oxy]phenyl}urea]	84%	

SMILES	IC50 [1]	inhibition in vivo at 50 mg/kg [9, 10]	also measured
COc1ccc(NC(=O)Nc2ccc(Oc3ccnc4cc(OC)c(OC)cc34)cc2)cc1 [Compound 43, N-(4-Methoxyphenyl)-N'-{4-[(6,7-dimethoxy-4-quinolinyl)oxy]phenyl}urea]	5 nM		Tumor growth inhibition rate (TGIR) [3]: 78%; Tumor growth inhibition rate (TGIR) [4]: 68%; Tumor growth inhibition rate (TGIR) [5]: 83%; maximum tumor growth inhibition rate (TGIR) [6]: 76%; Number of mice with arthritis/total mice ([7]; 10 mg/kg intraperitoneally): 1/9; Incidence of collagen-induced arthritis ([7]; 10 mg/kg intraperitoneally): 11%; Number of mice with arthritis/total mice ([7]; 100 mg/kg intraperitoneally): 0/10; Incidence of collagen-induced arthritis ([7]; 100 mg/kg intraperitoneally): 0%; prolonged survival: drug-treated animals survived longer than control animals by [8]: 130%
